Source: publication PMC8178808, “Exploring conformational preferences of proteins: ionic liquid effects on the energy landscape of avidin” (Chemical Science, 2020)

Target: T1, avidin (unmodified, native) (Gallus gallus, UniProt P02701)
T1 construct: gene AVD; natural secreted glycoprotein from egg white (mature chain, signal peptide removed), commercial lyophilised (Merck), untagged; homotetramer, one ligand site per monomer
Experiment: UV-Vis titration at […] nm, non-linear regression (Hill-Langmuir)
Format: binding
Conditions: read-out: Unmodified avidin / K d (×10^-5 mol dm^-3)

T1 sequence (P02701 25-152): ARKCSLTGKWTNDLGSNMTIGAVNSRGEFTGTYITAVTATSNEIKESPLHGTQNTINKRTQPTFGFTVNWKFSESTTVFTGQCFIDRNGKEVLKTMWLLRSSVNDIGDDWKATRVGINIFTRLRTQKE

- Kd: 11 µM
SMILES: O=C(O)c1ccccc1N=Nc1ccc(O)cc1 [HABA]
